Where two headings read alike, the source gives them in different places.
Assays:
[1] = biological target: T1, human H3 receptors (Homo sapiens (Human), UniProt Q9Y5N1); experiment: Affinity assessment: displacement of [3H]-N-α-Methylhistamine binding to membranes; details: membranes containing human H3 receptors, radioligand [3H]-N-α-Methylhistamine
Method: The affinity of compounds of the invention to the H3 receptor can be assessed by measuring displacement of binding of the radioligand [3H]-N-α-Methylhistamine (PerkinElmer, #NET1027250UC) to membranes containing human H3 receptors (PerkinElmer, #ES-392-M400UA; GenBank: NM_007232.2; Hill S J et al, International Union of Pharmacology XIII. Classification of histamine receptors, Pharmacol Rev, 49(3), 253-278, 1997).
2. Compound serial dilution: Dilution was performed by BioTek Precision on compound dilution plate. Compound concentrations start at 5 or 10 μM, 10 point dose titrations with 3- or 5-fold serial dilutions.
3. Preparation of 2× membrane solution (25 ml): 1.25 ml human Histamine H3 receptor stock, 23.75 ml assay buffer.
4. Preparation of 2× solution of [3H]-N-α-methylhistamine (25 ml): 4.27 μl [3H]-N-α-methylhistamine stock, 25 ml assay buffer.
5. Assemble binding reaction: (a) transfer 1 μl of compound solution, 1 μl 100% DMSO and 1 μl 1 M (R)(−)-α-Methylhistamine (Sigma, #H128) to the reaction plate at room temperature, (b) transfer 50 μl of 2× protein solution to reaction plate, (c) transfer 49 μl of 2× radioligand solution to reaction plate (Corning® 96 well EIA/RIA plate; Sigma, #CLS3797).
6. Cover the reaction plate with a TopSeal™-A film (Perkin Elmer, #6005185) and incubate at 28° C. for 120 min. Equilibrate Zeba Spin Desalting Plates (Thermo Scientific, #89808) to room temperature for 120 min.
7. Remove the sealing material from the bottom of the filtration plate. Place the plate on a wash plate. Centrifuge at 1000 g for 2 min to remove the storage buffer at room temperature.
8. Transfer 70 μl binding reaction from reaction plate into filtration plates. Place the filtration plates on top of collection plate. Centrifuge the plate assembly at 1000 g for 2 min to collect the protein with bound radioligand. Add 200 μl of Microscint-40 (PerkinElmer, #6013641-1L) to each well of the collection plate. Cover the plates with TopSeal™-A film.
9. Read the plates on Wallac Microbeta Trilux 2450, Instrument settings: counting mode: CPM, counting time: 2 min.
10. Data analysis: GraphPad Prism: log (compound concentration) vs. response; variable slope. The Ki is calculated based on Chang and Prusoff: Ki=IC50/{1+([radioligand]/Kd)}

[2] = biological target: T1, human H3 receptors; experiment: Potency assessment: blockade of (R)-alpha-methylhistamine-mediated cAMP production (LANCE Ultra cAMP kit); assay type: cell-based; details: CHO cells expressing human H3 receptors
Method: The potency of compounds of the invention as H3 receptor antagonists can be assessed by measuring the blockade of (R)-alpha-methylhistamine-mediated cAMP production utilizing a LANCE Ultra cAMP kit (PE #TRF0263) in CHO cells expressing human H3 receptors (GenBank: BC096840; Strausberg R L et al, Proc. Natl. Acad. Sci. U.S.A. 99(26), 16899-16903; 2002).
2. Preparation of assay plate: Different concentrations of the compounds of the invention (0.01-1000 nM), H3 positive controls and cAMP calibration standards; […] Forskolin (CALBIOCHEM #344270); 5 μM (R)-alpha-methylhistamine (H3 receptor agonist); 1% DMSO (SIGMA #D2650); total volume: 95 nl.
3. Preparation of the cell solution: Collect cells with stimulation buffer, final density: 100,000 cells/ml.
4. Reaction: (a) transfer 10 μl of cell solution to assay plate, (b) centrifuge at 600 rpm for 3 min and incubate 50 min at room temperature, (c) add 5 μL 4× Eu-cAMP tracer solution (60 μl Eu-cAMP tracer stock solution+2.94 ml cAMP detection buffer) and 5 μL 4× ULight™-anti-cAMP solution (20 μl […]+2.98 ml cAMP detection buffer) to assay plate.
5. Reading plate on EnVision: flash energy: 100%; excitation filter: 111 UV2 320; emission filter: 203 (Eu 615) and 205 (APC 665); number of laser flashes: 20; window: 100 μs; laser mirror module: 445 or 446; laser cycle: 16,600 μs.
6. Data analysis by GraphPad Prism: log (compound concentration) vs. response; variable slope.

[3] = Solubility of solid forms in aqueous media; assay type: physicochemical

T1 sequence (Q9Y5N1 whole entry): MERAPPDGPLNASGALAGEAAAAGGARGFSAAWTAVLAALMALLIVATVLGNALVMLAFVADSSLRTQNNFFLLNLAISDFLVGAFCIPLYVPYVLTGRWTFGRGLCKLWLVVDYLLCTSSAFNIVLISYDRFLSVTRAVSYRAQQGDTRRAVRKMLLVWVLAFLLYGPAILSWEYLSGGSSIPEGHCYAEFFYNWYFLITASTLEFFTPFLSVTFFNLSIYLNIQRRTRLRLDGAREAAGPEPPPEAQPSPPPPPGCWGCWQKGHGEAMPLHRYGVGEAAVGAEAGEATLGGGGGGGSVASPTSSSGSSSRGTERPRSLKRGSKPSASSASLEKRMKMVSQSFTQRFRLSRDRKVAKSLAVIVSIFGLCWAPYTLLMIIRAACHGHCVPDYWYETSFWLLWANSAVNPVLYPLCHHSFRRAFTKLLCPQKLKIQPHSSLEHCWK

| Compound | Ki [1] [nM] | Ki [2] [nM] | solubility in aqueous media ([3]; across a pH range from about 1-8) | solubility in aqueous media [3] |
| --- | --- | --- | --- | --- |
| Cn1nc(N2CCC(OC(=O)N3CCN(C4CCC4)CC3)CC2)ccc1=O [Example 1.5, 1-(1-methyl-6-oxo-1,6-dihydropyridazin-3-yl)piperidin-4-yl 4-cyclobutylpiperazine-1-carboxylate] | 25 | 1.1 | – | – |
| CCn1nc(N2CCC(OC(=O)N3CCN(C(C)C)CC3)CC2)ccc1=O [Example 1.6, 1-(1-ethyl-6-oxo-1,6-dihydropyridazin-3-yl)piperidin-4-yl 4-isopropylpiperazine-1-carboxylate] | 44 | 2.9 | – | – |
| O=C(OC1CCN(c2cc[nH]c(=O)c2)CC1)N1CCN(C2CCC2)CC1 [Example 2.2, 1-(2-oxo-1,2-dihydropyridin-4-yl)piperidin-4-yl 4-cyclobutylpiperazine-1-carboxylate] | 25 | 0.5 | – | – |
| Cn1nc(N2CCC(OC(=O)N3CCN(C4CCC4)CC3)CC2)ccc1=O [Form A of the free from, 1-(1-methyl-6-oxo-1,6-dihydropyridazin-3-yl)piperidin-4-yl 4-cyclobutylpiperazine-1-carboxylate] | – | – | good solubility | – |
| Cn1nc(N2CCC(OC(=O)N3CCN(C4CCC4)CC3)CC2)ccc1=O [Form B of the free from, 1-(1-methyl-6-oxo-1,6-dihydropyridazin-3-yl)piperidin-4-yl 4-cyclobutylpiperazine-1-carboxylate] | – | – | – | good solubility |

Further molecules by falling Ki [1], results first:

| Ki [1] [nM] | Ki [2] [nM] | solubility in aqueous media ([3]; across a pH range from about 1-8) | solubility in aqueous media [3] | Compound |
| --- | --- | --- | --- | --- |
| 25 | 2.3 | – | – | O=C(OC1CCN(c2ccc(=O)[nH]n2)CC1)N1CCN(C2CC2)CC1 [Example 1.4, 1-(6-oxo-1,6-dihydropyridazin-3-yl)piperidin-4-yl 4-cyclopropylpiperazine-1-carboxylate] |
| 20 | 3.1 | – | – | CC(C)N1CCN(C(=O)OC2CCN(c3ccn(C)c(=O)c3)CC2)CC1 [Example 2.1, 1-(1-methyl-2-oxo-1,2-dihydropyridin-4-yl)piperidin-4-yl 4-isopropylpiperazine-1-carboxylate] |
| 12 | 0.9 | – | – | CC(C)N1CCN(C(=O)OC2CCN(c3cc[nH]c(=O)c3)CC2)CC1 [Example 2.3, 1-(2-oxo-1,2-dihydropyridin-4-yl)piperidin-4-yl 4-isopropylpiperazine-1-carboxylate] |
| 1.2 | 1.6 | – | – | CC(C)N1CCN(C(=O)OC2CCN(c3ccc(=O)[nH]c3)CC2)CC1 [Example 3.1, 1-(6-oxo-1,6-dihydropyridin-3-yl)piperidin-4-yl 4-isopropylpiperazine-1-carboxylate] |

— patent US9034874B2, “Carbamate/urea derivatives” (NOVARTIS AG, priority 2012, dated 2015)
